From US20220056075A1, “METHOD FOR TREATING OPIOID USE DISORDER” (THE ADMINISTRATORS OF THE TULANE EDUCATIONAL FUND, priority 2019, published 2022)
“Also recorded” adds a separate entry of the source.

Tests used:
Male Sprague-Dawley rats = assay: Reinstatement of morphine-induced conditioned place preference; details: priming dose 1.8 mg/Kg, 20 min, vs baseline
Protocol: Male Sprague-Dawley rats were exposed to a conditioned place preference (CPP) apparatus for two sessions to determine baseline (BL) preference for 2 distinct, unbiased chambers. […] The animals then underwent extinction procedures consisting of confinement for 45 min in the previously drug- and vehicle-paired chambers for 7 days.

rats = details: cited from earlier work
[1] = cumulative doses producing maximum antinociceptive effects; cited from earlier work
Male Sprague Dawley rats = assay: Conditioned place preference (CPP), 5-day procedure; format: in vivo, rat; details: 5 days of conditioning, 1.8, 3.2, 5.6 mg/Kg i.v.
Protocol: Conditioned Place Preference (CPP) and locomotor activity: Standard CPP chambers (TSE; Chesterfield, Mo.) were used to measure baseline activity and conditioning trials. Baseline activity was measured over 2 days with 4 trials per day (2 in the AM, and 2 in the PM) lasting 20 min each. […] Conditioning trials were conducted for 5 days and tested in an unbiased manner such that drug/environment pairings were counterbalanced for time of drug injection (AM or PM) and compartment (preferred or non-preferred) based on baseline activity. […] This indicates a lack of carry-over effects of drug between sessions. One day following the last conditioning trial, a 20 min test trial was conducted in the same manner as baseline trials in which rats were free to explore both compartments. Change in time spent exploring the drug-paired compartment (test-baseline) was used to indicate preference (or aversion) to the compartment. Approximately 20 min following the final session, rats were perfused and brain samples were taken for immunohistochemical analysis (below). Locomotor activity was assessed by infrared light beams located in the conditioning compartments and the start box. […] Data were recorded in meters and an assessment of locomotor sensitization was made by subtracting the first session from the final session.
Experimenters were blinded to treatment groups.

[2] = tested on: dopamine (DA) neurons in the posterior VTA; assay: VTA dopamine cell soma morphology (TH staining, STEREO INVESTIGATOR); format: in vivo, rat; details: 5 consecutive daily i.v. injections; morphine effect at 5.6 mg/Kg
Protocol: DA morphology analysis: Fifteen min following the final CPP test session, rats were anesthetized with a mixture of ketamine/xylazine (85/10 mg/Kg, i.p., respectively) and perfused intracardially with 200 mL of 0.1 mol/L phosphate buffered saline (PBS) immediately followed by 300 mL of 4% paraformaldehyde in 0.1 mol/L PBS (pH=7.4). Brains were removed and post-fixed at 4° C. in the same fixative for 18 h. After post-fixation, brains were incubated in 30% sucrose at 4° C. for 2 days and sectioned coronally on a cryostat at 40 μm at the level of the posterior VTA (Spiga et al., 2003; Chu et al., 2008). After 2 consecutive washes in PBS, sections were blocked with 5% normal donkey serum (NDS) for 1 h, and incubated with the primary antibody anti-tyrosine-hydroxylase (anti-TH, 1: 3000 Cell Signaling Technology, Danvers, Mass.) overnight at 4° C. Slices were washed twice in PBS, re-blocked for 1 h, and incubated with the secondary antibody ALEXA594 (Life Technologies, Carlsbad, Calif.), for 2 h. Sections were washed, mounted on slides with PROLONG GOLD (Life Technologies), and stored at 4° C. Posterior VTA sections were verified according to the atlas of Paxinos and Watson (2007). Images of the parabrachial pigmented area (PBP) and the paranigral area (PN) subregions of the posterior VTA were captured in z-stacks (1 μm) with at least 5 tissue slices per rat and 5-6 rats per drug group. STEREO INVESTIGATOR software (MBF Bioscience; Williston, Va.) was used to quantify soma size using the optical fractionator probe to survey a sample of neurons in each z-stack while the nucleator probe was used to measure the cross-sectional area and volume of each cell soma. The optical fractionator probe was used to quantify the number of cells in a particular section of tissue through systematic random sampling. Between 12 and 16 regions were surveyed per z-stack. While the optical fractionator probe utilized stereological techniques to select a random sample to be analyzed, the nucleator probe measured the cross-sectional area of each neuron. Therefore, the simultaneous use of these probes systematically assessed neurons in the PBP and PN regions of the VTA in each subject, and provided morphological data for these cells including surface area (μm^2) and volume (μm^3). Cell somas were eligible to be quantified if they were located within the counting frame and/or if the soma touched either of the nucleator frame's green borders. Neurons were ineligible if located outside the counting frame and/or if their soma touched the frame's red borders. After determining this optimum depth, the center of the soma was located and analyzed by the nucleator probe. To eliminate bias associated with tissue orientation, nucleator rays were randomly arranged between quantifications. […]

male and female mice = details: acute, equi-antinociceptive doses
male rats = assay: Maintenance of established oxycodone self-administration (substitution); format: in vivo, rat
Protocol: Self-administration (SA): Self-administration tests were conducted in standard operant chambers (MED Associates, St. Albans, Vt.). Infusions were delivered through TYGON tubing threaded through metal spring leashes and attached to exterior infusion pumps. 3-hour sessions were conducted Monday-Friday during the dark cycle. At the start of each session, the house light was illuminated, and levers extended. […] For the first 5 sessions, rats were trained to lever press for oxycodone (0.1 mg/kg/infusion) on a FR1 reinforcement schedule. For the following 10 sessions, the dose of oxycodone was decreased to 0.05 mg/kg/infusion to increase lever responding.
Maintenance of established oxycodone self-administration: Following acquisition of oxycodone self-administration, animals were split into treatment groups counterbalanced for total oxycodone intake, average number of infusions obtained in the last 3 sessions, and average number of active lever pressings over the last 3 sessions. Ten maintenance sessions were conducted in the same way as oxycodone acquisition except rats were either maintained on 0.1 mg/kg/infusion oxycodone or had drug availability substituted with equi-antinociceptive 1 mg/kg/infusion ZH853 or vehicle.

male and female rats = assay: Naloxone-induced conditioned place aversion (CPA); format: in vivo, rat; details: i.v. morphine 5.6 mg/Kg or ZH853 4.2 mg/Kg, naloxone 1 mg/Kg s.c. 4 h later
Protocol: Four hours later they received s.c. naloxone (1 mg/Kg) and were confined to one side of the apparatus (counterbalanced) for 20 min. The following day the animals received vehicle-then-saline rather than drug-then-naloxone. This cycle (drug+4 h+nlx+next day vehicle+saline) was repeated once, and the next day the animals had access to the entire apparatus (Post-cond).
To assess whether ZH853 induces the negative affect typical of opioid withdrawal, the conditioned place aversion (CPA) test was conducted.

glia = details: conditions where morphine activates glia; cited from earlier work

NC(=O)CNC(=O)[C@@H]1CCC(=O)NCCCC[C@@H](NC(=O)[C@@H](N)Cc2ccc(O)cc2)C(=O)N[C@@H](Cc2c[nH]c3ccccc23)C(=O)N[C@@H](Cc2ccccc2)C(=O)N1 [ZH853, Tyr-c[D-Lys-Trp-Phe-Glu]-Gly-NH2]
reinstatement of morphine CPP after extinction (Male Sprague-Dawley rats): scores not significantly different from baseline
hourly SA intake (peak) (rats; 12-hour SA sessions, 3 mg/Kg/infusion): 1.1 mg/kg/h
reinforcing effects in SA/CPP procedures (rats; rat, in vivo): did not produce reinforcing effects in SA/CPP procedures
motor impairment on the Rotarod [1]: lack of motor impairment
conditioned place preference (CPP) or aversion (Male Sprague Dawley rats): did not produce CPP (or aversion) at any dose
surface area of TH-positive somas in pVTA [2]: did not alter
volume of TH-positive somas in pVTA [2]: did not alter
distance traveled (AUC) (male and female mice): did not affect the distance traveled
self-administration behavior during maintenance sessions (male rats; after acquisition of oxycodone SA, drug continued or substituted, i.v. infusions): the self-administration behavior extinguished over time; also recorded: reduced the number of infusions obtained (C) and active lever responses (D) over maintenance sessions
rate of extinction of self-administration (male rats; substitution for oxycodone): faster than with vehicle substitution
naloxone-induced place aversion (male and female rats): did not produce a place aversion
glial activation (glia): lack of glial activation
